Test results as given in paper PMC6504913 (Angewandte Chemie (International ed. in English), 2018).

Assays:
[1] = assay type: physicochemical; conditions: pH 7.4 aqueous buffer
RAW 264.7 cells = experiment: LPS-induced NO2^– formation in macrophage RAW 264.7 cells; assay type: cell-based; conditions: 25 μM pretreatment 6 h, then LPS 1.0 μg/mL 18 h

n-butylthiocarbamate [n-BuTCM-1]
stability in aqueous buffer (PNA formation) [1]: stable

C1COCCN1.COc1ccc(P(=S)(S)N2CCOCC2)cc1 (centres unmarked) [GYY4137]
effect on LPS-induced NO2^– production (RAW 264.7 cells): less pronounced effect
